One series has as its system Aβ40, Aβ42 and Aβ1-x. Briefly: Aβ ELISA of conditioned medium of PS70 cells treated with NSAIDs. In kind it is cell-based, human. Particulars: 24 hours; for Aβ1-x level (ELISA): high doses. As for the experimental part:
(§1) Cell culture and drug treatment: PS70 cells, CHO cells stably overexpressing wild-type human PS1 and APP 751 (Xia, W. et al., J. Biol. Chem. 272, 7977-7982, 1997), mouse N2a neuroblastoma, or human embryonic kidney (HEK) cells were used in this study. Cells were cultured in OPTI-MEMI with 5% fetal bovine serum at 37° C. with 5% CO2 in a tissue culture incubator. Primary cultured hippocampal-cortical neurons were prepared from embryonic day 16-18 mouse brain as described (Berezovska, O. et al., Brain Res Mol Brain Res 69: 273-280, 1999).
(§2) The NSAIDs (S)-ibuprofen (250 mM, Biomol, Plymouth Meeting, Penn.), (R)-ibuprofen (250 mM, Biomol), and flurbiprofen (250 mM, Calbiochem, San Diego, Calif.) were dissolved in 100% ethanol. […] Cells were plated onto either 12-well plates (for Aβ determinations) or onto 4-chamber slides (FLIM studies) and treated for 24 hours with NSAIDs prior to the analysis. A vehicle control chamber treated with ethanol or DMSO (0.1%) was included in each experiment. Cell toxicity was analyzed for all drugs tested by measuring adenylate kinase levels using Toxi-light reagent (Camdex, New Jersey).
(§3) ELISA, BACE-specific enzymatic activity assay and Western Blots: For Aβ ELISA we used 500 μl of conditioned medium collected 24 hours post-treatment. Formic acid-extractable Aβ in the mouse brain was measured as described (Fukumoto, H.,et al., Am. J. Pathol. 164, 719-725, 2004). The capture antibody was BNT77 and the detection antibody was horseradish peroxidase (HRP)-conjugated BA27 for Aβ40 and HRP-conjugated BC05 for Aβ42 (Asami-Odaka, A. et al., Biochemistry 34: 10272-10278, 1995). We used BAN50 as a capture antibody and HRP-conjugated BNT77 as a detection antibody for Aβ1-x (a gift from Takeda, Japan) (Asami-Odaka, A. et al., Biochemistry 34: 10272-10278, 1995). BACE activity was measured using a sensitive BACE-specific enzymatic activity assay (Fukumoto, H.,et al., Am. J. Pathol. 164, 719-725, 2004).
We treated Chinese hamster ovary (CHO) cells stably transfected with APP and PS1 (PS70 cells) with several NSAIDs at different doses for 24 hours and measured Aβ40 and Aβ42 using ELISA (FIG. 14).
A general note: An ELISA detects its analyte on a solid surface through an enzyme-linked reagent.

In another series the target is T1, BACE (Mus musculus, UniProt P56818).
T1 construct: from tissue; host or cells: frozen brain of wtPS1 transgenic mice
T1 sequence (P56818 46-501): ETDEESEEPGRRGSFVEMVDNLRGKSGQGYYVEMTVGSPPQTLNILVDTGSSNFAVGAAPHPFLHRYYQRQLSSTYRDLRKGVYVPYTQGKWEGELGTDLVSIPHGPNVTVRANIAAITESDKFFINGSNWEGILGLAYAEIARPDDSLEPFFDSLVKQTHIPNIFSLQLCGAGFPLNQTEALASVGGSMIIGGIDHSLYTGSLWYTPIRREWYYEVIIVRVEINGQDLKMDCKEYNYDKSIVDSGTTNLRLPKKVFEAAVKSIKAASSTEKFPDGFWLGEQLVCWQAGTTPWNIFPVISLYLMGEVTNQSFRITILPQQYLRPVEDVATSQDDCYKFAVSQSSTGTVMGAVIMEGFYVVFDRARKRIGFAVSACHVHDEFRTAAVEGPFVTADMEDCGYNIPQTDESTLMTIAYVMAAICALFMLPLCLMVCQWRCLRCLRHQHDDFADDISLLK
Briefly: BACE-specific enzymatic activity assay in brain of treated mice. It is filed as in vivo. Particulars: S-ibuprofen 375 ppm in diet vs control diet, 15 days. As for the experimental part: as §3
(§4) Ibuprofen treatment of wtPS1 mice: Three-month-old transgenic mice over-expressing wtPS1 were treated with S-ibuprofen (375 ppm in diet, Research Diets, New Brunswick, N.J.) or a control diet for 15 days (6 mice per group). […] At the end of the experimental period animals were sacrificed by CO2 inhalation. The brains were dissected, half of each brain was frozen on dry ice for Aβ ELISA and BACE activity analysis and the other half was fixed in 4% paraformaldehyde for immunohistochemistry. […]

The next series addresses T2, APP and PS1 (Homo sapiens, UniProt P49768).
T2 construct: expressed in transfected cells
Nature of the series: FLIM assay for PS1-APP proximity after NSAID treatment. The note with it: donor APP-CT-FITC, acceptor loop PS1-Cy3, 24 h, 375 μM S-ibuprofen, 375 μM flurbiprofen, 500 μM aspirin, DMSO vehicle 2127 ± 224. In kind it is cell-based. As for the experimental part: as §1, §2

Series [1] can be described thus: Chow consumption and mouse weight during ibuprofen treatment. It is filed as in vivo. The note with it: S-ibuprofen 375 ppm in diet vs control diet, 15 days. As for the experimental part:
(§5) Ibuprofen treatment of wtPS1 mice: Three-month-old transgenic mice over-expressing wtPS1 were treated with S-ibuprofen (375 ppm in diet, Research Diets, New Brunswick, N.J.) or a control diet for 15 days (6 mice per group). […] At the end of the experimental period animals were sacrificed by CO2 inhalation. The brains were dissected, half of each brain was frozen on dry ice for Aβ ELISA and BACE activity analysis and the other half was fixed in 4% paraformaldehyde for immunohistochemistry.

The subject of another series is Aβ42 and Aβ40. Briefly: Brain Aβ ELISA in wtPS1 transgenic mice treated with S-ibuprofen. In kind it is in vivo, mouse. The note with it: 3-month-old wtPS1 transgenic mice, 375 ppm in diet, 15 days; P=0.03. As for the experimental part:
as §3, §4

The target in series [2] is T3, PS1 (Homo sapiens, UniProt P49768). Nature of the series: In vivo FLIM assay of proximity between N- and C-termini of PS1 in brain sections. Details: expressed in transfected cells; host or cells: primary hippocampal-cortical neurons from embryonic day 16-18 mouse brain; species or system mouse. Particulars: mice, 375 ppm in diet, 15 days; control diet 1934±161 psec; P=0.02. As for the experimental part: as §5
Half of the brain was fixed, sectioned at 35 μm, and immunostained with antibodies against the N- and C-termini of PS1.

Series [3] concerns the target T3, PS1. Briefly: FLIM assay of PS1 N-/C-termini proximity in primary cultured neurons. In kind it is cell-based, mouse. Details: expressed in transfected cells; host or cells: primary hippocampal-cortical neurons from embryonic day 16-18 mouse brain. As for the experimental part:
as §1, with “1999). Transfection protocol: Transient transfection in cells was performed using Superfect reagents (Qiagen, Valencia, Calif.) according to manufacturer's instructions. Primary cultured neurons were transfected with wild-type PS1 plasmid using the method of calcium phosphate co-precipitation as described (Berezovska, O. et al., Brain Res Mol Brain Res 69: 273-280, 1999; Chen, C. et al., Biotechniques 6: 632-638, 1987).” for “1999).”

Series [4] addresses T3, PS1. Briefly: Confocal staining with biotinylated WPE31C as histological reagent (wt PS1 vs D257A PS1 cells). Particulars: cells expressing wt PS1. Details: expressed in transfected cells. In kind it is cell-based. As for the experimental part: PS1 immunostaining co-localizes with CY3-streptavidin labeled WPE-31C-bi in the cells expressing wt PS1. […] Bar=[…].
We reasoned that an agent that binds to the active site would compete with APP, blocking the APP-PS1 interaction if the first possibility were the case. […] The cells were treated with WPE-31C to examine whether APP would still be associated with the PS1 loop region. […] It has been observed that transition state analogues like WPE31C bind specifically to the heterodimeric form of PS1, and not to the holoprotein prior to cleavage. […] We used a biotinylated form of WPE31C (Esler, W. P. et al., Proc Natl Acad Sci USA 99: 2720-2725, 2002) as a histological reagent. […] Of note, there was less WPE-31C/Cy3 signal in the proximal perinuclear compartment, compared with PS1 immunoreactivity, confirming our observation that some of this PS1 is in a different conformation and is likely not proteolytically active.

Series [5] deals with APP and PS1 (PS1/γ-secretase complex). Briefly: FLIM assay for PS1 loop-APP C-terminus proximity in CHO cells treated with γ-secretase inhibitors. In kind it is cell-based, Chinese hamster. Particulars: WT PS1 CHO cells, donor PS1 loop-FITC, acceptor APP770-CY3, 4 h with DAPT 500 nM or WPE-III-31C 1 μM, non-FRET control 2600 ± 110, untreated 2290 ± 216. As for the experimental part: Chinese hamster ovary (CHO) cells stably transfected with APP770 and either wild type PS1 (wt PS1) or Aspartate mutant PS1 (D257A PS1) were grown in OPTI-MEM with 5% fetal bovine serum and appropriate antibiotics (Puromycin or Zeocin, respectively, (Berezovska et al., 2000)).
Cells were fixed and immunostained 24 hrs posttransfection as described previously (Jack, C. et al., Brain Res Mol Brain Res 87: 166-174, 2001). We used a polyclonal C8 antibody (Selkoe, D. et al., Proc Natl Acad Sci USA 85: 7341-7345, 1988) to detect the C-terminus of APP. A monoclonal antibody to the loop region of PS1 (Chemicon, Temecula, Calif.) was used to identify the γ-secretase complex. PS1 N-terminal X81 antibody was a gift from D. Selkoe (Brigham and Women's Hospital, Boston, Mass.); PS1 C-terminal antibody was purchased from R&D Systems, Inc., Minneapolis, Minn.). For FRET/FLIM studies we chose Cy3-labeled goat anti-rabbit as the acceptor fluorophore, and FITC-labeled goat anti-mouse as the donor fluorophore.
Fluorescence Lifetime Imaging Microscopy (FLIM) relies on the observation that fluorescence lifetimes (the time of fluorophore emission after brief excitation, measured in picoseconds) are shorter in the presence of a FRET acceptor. […] We used a high-speed Hamamatsu detector and hardware/software from Becker and Hickl (Berlin, Germany) to measure fluorescence lifetimes on a pixel-by-pixel basis. […]
The following controls were used to establish and validate the FLIM assay: (1) As a negative control, FITC lifetime was measured in the absence of the acceptor. […] (2) As a positive control, FITC lifetime was measured in the presence of an acceptor. […] By contrast, the FITC fluorescence lifetime (FLIM image) within the area where the acceptor was photobleached reverts to a longer lifetime (color-coded as blue), identical to the lifetime of FITC in the absence of an acceptor (as in the negative control, FIG. 7A). […]
If there was no interaction, lifetimes on the order of ˜2600 psec were observed. If FRET was detected, a population with a statistically shorter lifetime (<˜2400 psec) was observed.

“Also recorded” adds a separate entry of the source.

The source of these data is US20050048539A1, “Methods to monitor molecule conformation and molecule/molecule proximity” (The General Hospital Corporation, priority 2003, published 2005).

Regarding `CC(C)Cc1ccc([C@@H](C)C(=O)O)cc1` [R-ibuprofen, (R)-ibuprofen], in the series with Aβ40, Aβ42 and Aβ1-x, the “Aβ42 level (ELISA)” value is reported as “marked reduction; also recorded: dose-dependent reduction”.
In the case of `CC(C)Cc1ccc([C@H](C)C(=O)O)cc1` [S-ibuprofen, (S)-ibuprofen], the “BACE activity in brain” value at BACE is on record as “No differences”. For the same compound, the “FITC lifetime APP-CT (mean ± SD)” value at APP and PS1 is 2307 ± 107 psec. Besides, the “FITC lifetime APP-CT (mean ± SD)” value on APP and PS1 (listed as ibuprofen) is “increased FITC lifetime”. Besides, in the series with Aβ40, Aβ42 and Aβ1-x, the “Aβ40 level (ELISA)” value was “reduced”, the “Aβ42 level (ELISA)” value is “marked reduction; also recorded: dose-dependent reduction” and the “Aβ1-x level (ELISA)” value is “did not observe a change”. The “amount of chow consumed, mouse weight” value in series [1] is listed as “no differences”. Also, the “reduction of Aβ42/Aβ40 ratio in the brain vs control diet” value in the series on Aβ42 and Aβ40 was 12%. Besides, the “FITC lifetime, brain sections stained for PS1 N- and C-termini” value on PS1 [2] stood at 2205±104 psec. For the same compound, the “FITC lifetime (PS1 N- to C-termini distance)” value on PS1 [3] is given as “significantly increased”.
As to `COC(=O)[C@@H](NC(=O)[C@H](CC(C)C)NC(=O)N(Cc1ccccc1)C[C@@H](O)[C@H](Cc1ccccc1)NC(=O)OC(C)(C)C)C(C)C` [WPE-III-31C], at PS1 [4], the “CY3-streptavidin staining / co-localization with PS1 immunostaining” value is “strongly stained”. Also, the “FITC Lifetime (psec) mean ± SD” value was 1972 ± 264 (n = 30) psec in series [5] (listed as WPE31C); “tight association between APP and PS1” in series [5] (listed as WPE-31C).
For `CC(=O)Oc1ccccc1C(=O)O` [aspirin], in the series on Aβ40, Aβ42 and Aβ1-x, the “Aβ40 level (ELISA)” value is recorded as “No or small change” and the “Aβ42 level (ELISA)” value is “No or small change”.
Consider `CC(C(=O)O)c1ccc(-c2ccccc2)c(F)c1` (centres unmarked) [flurbiprofen], for which, in the series on Aβ40, Aβ42 and Aβ1-x, the “Aβ40 level (ELISA)” value was “reduced”, the “Aβ42 level (ELISA)” value is listed as “marked reduction; also recorded: dose-dependent reduction” and the “Aβ1-x level (ELISA)” value is on record as “did not observe a change”.
As for `COc1ccc2c(c1)c(CC(=O)O)c(C)n2C(=O)c1ccc(Cl)cc1` [indomethacin], in the series with Aβ40, Aβ42 and Aβ1-x, the “Aβ42 level (ELISA)” value is “marked reduction; also recorded: dose-dependent reduction” and the “Aβ1-x level (ELISA)” value was “did not observe a change”. The “FITC lifetime (PS1 N- to C-termini distance)” value on PS1 [3] is given as “significantly increased”.
Consider `COc1ccc2cc([C@H](C)C(=O)O)ccc2c1` [naproxen], for which, in the series on Aβ40, Aβ42 and Aβ1-x, the “Aβ40 level (ELISA)” value is given as “No or small change”, the “Aβ42 level (ELISA)” value is listed as “No or small change” and the “Aβ1-x level (ELISA)” value is given as “did not observe a change”. Moreover, on PS1 [3], the “FITC lifetime (PS1 N- to C-termini distance)” value is “not”.
